Key:
ROCK2 = molecular target: T1, ROCK2 (Homo sapiens, UniProt O75116); experiment: ROCK2 inhibition assay (ADP-Glo kinase assay, called ROCK2 binding activity); format: biochemical; details: 20 μM ATP, 1 hour pre-incubation, read-out: ROCK 2 (IC50 category)
T1 construct: N-terminal 6His-tagged ROCK2 catalytic domain 11-552; 6His (N); purchased Dundee University, UK; host or cells: baculovirus expression system
Procedure: ROCK2 Binding Activity: Assay for ROCK2 inhibition was performed using the protein construct N-terminal 6His-tagged ROCK2 catalytic domain 11-552 (Dundee University, UK). Protein was purified from a baculovirus expression system. Long S6 peptide ([…]) was used as substrate. Kinase reactions were carried out in 15 μl volume in a 96-well plate (black, half area) using 1.25 nM constitutively active ROCK2 kinase, 100 μM long S6 peptide, 20 μM ATP and test compound in DMSO (or DMSO only for controls). The final concentration of DMSO was 1%. Assay buffer was 50 mM HEPES pH 7.5 supplemented with 0.2 mM EDTA, 10 mM magnesium acetate, 0.01% Tween-20, 1 mM DTT and 0.01% BSA. Test compounds were pre-incubated with ROCK2 kinase for 1 hour before addition of ATP and long S6 peptide. After incubation for a further 1 hour, the amount of ADP produced was measured using ADP-Glo Kinase Assay (Promega) as per manufacturer's instructions. The luminescence was measured on a PHERAstar FS (BMG Labtech). The concentration of test compound required to inhibit ADP production by 50% (the IC50) was calculated using a four-parameter logistic function with software by Dotmatics. […] The category “+” refers to compounds with a ROCK2 or ROCK1 IC50 value of >10 μM. The category “++” refers to compounds with a ROCK2 or ROCK1 IC50 value of 10 to 3 μM. The category “+++” refers to compounds with a ROCK1 or ROCK2 IC50 value of 3 to 0.3 μM. The category “++++” refers to compounds with a ROCK1 or ROCK2 IC50 value of <0.3 μM.

ROCK1 = ROCK1 (Homo sapiens, UniProt Q13464); experiment: ROCK1 inhibition assay (ROCK1 binding activity, as determined by the assay described for ROCK2); format: biochemical; details: read-out: ROCK 1 (IC50 category)
Chain of ROCK1 (Q13464 whole entry, the tested form may be a part): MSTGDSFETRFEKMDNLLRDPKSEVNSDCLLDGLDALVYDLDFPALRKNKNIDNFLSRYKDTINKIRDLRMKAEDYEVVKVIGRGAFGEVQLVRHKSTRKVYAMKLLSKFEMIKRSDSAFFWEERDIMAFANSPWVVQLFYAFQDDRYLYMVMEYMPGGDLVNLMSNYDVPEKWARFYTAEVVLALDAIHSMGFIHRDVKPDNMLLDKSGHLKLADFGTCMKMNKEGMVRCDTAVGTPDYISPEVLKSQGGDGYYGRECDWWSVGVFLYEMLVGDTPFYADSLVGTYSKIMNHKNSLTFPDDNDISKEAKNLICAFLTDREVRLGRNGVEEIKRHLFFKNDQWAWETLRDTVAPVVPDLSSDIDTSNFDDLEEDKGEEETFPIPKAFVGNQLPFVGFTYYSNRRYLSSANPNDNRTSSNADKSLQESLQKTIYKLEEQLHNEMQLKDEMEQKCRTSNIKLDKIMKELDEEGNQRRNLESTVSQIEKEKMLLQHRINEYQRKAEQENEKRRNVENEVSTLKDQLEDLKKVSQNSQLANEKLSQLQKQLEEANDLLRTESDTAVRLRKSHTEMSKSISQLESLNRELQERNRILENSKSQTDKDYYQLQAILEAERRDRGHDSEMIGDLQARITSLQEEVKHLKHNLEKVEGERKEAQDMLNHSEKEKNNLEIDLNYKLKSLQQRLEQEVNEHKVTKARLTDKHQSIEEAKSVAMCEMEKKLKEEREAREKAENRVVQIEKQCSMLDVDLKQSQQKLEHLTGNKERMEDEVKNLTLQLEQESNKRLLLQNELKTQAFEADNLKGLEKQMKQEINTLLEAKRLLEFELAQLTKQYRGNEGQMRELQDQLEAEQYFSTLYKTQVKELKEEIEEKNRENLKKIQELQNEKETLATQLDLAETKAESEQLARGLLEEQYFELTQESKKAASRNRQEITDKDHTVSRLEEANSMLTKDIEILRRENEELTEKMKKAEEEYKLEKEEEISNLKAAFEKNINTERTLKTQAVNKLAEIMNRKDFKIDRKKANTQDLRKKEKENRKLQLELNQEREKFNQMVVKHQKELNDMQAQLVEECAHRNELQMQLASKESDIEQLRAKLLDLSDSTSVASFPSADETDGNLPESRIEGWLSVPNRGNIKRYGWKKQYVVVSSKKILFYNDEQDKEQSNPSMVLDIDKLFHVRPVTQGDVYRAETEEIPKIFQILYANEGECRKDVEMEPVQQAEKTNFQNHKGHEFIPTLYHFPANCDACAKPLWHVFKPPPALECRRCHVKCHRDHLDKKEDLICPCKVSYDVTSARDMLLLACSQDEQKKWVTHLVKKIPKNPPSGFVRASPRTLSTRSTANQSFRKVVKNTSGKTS
Procedure: Assay for ROCK2 inhibition was performed using the protein construct N-terminal 6His-tagged ROCK2 catalytic domain 11-552 (Dundee University, UK). Protein was purified from a baculovirus expression system. Long S6 peptide ([…]) was used as substrate. Kinase reactions were carried out in 15 μl volume in a 96-well plate (black, half area) using 1.25 nM constitutively active ROCK2 kinase, 100 μM long S6 peptide, 20 μM ATP and test compound in DMSO (or DMSO only for controls). The final concentration of DMSO was 1%. Assay buffer was 50 mM HEPES pH 7.5 supplemented with 0.2 mM EDTA, 10 mM magnesium acetate, 0.01% Tween-20, 1 mM DTT and 0.01% BSA. Test compounds were pre-incubated with ROCK2 kinase for 1 hour before addition of ATP and long S6 peptide. After incubation for a further 1 hour, the amount of ADP produced was measured using ADP-Glo Kinase Assay (Promega) as per manufacturer's instructions. The luminescence was measured on a PHERAstar FS (BMG Labtech). The concentration of test compound required to inhibit ADP production by 50% (the IC50) was calculated using a four-parameter logistic function with software by Dotmatics. […] The category “+” refers to compounds with a ROCK2 or ROCK1 IC50 value of >10 μM. The category “++” refers to compounds with a ROCK2 or ROCK1 IC50 value of 10 to 3 μM. The category “+++” refers to compounds with a ROCK1 or ROCK2 IC50 value of 3 to 0.3 μM. The category “++++” refers to compounds with a ROCK1 or ROCK2 IC50 value of <0.3 μM.

T1 sequence (O75116 11-552): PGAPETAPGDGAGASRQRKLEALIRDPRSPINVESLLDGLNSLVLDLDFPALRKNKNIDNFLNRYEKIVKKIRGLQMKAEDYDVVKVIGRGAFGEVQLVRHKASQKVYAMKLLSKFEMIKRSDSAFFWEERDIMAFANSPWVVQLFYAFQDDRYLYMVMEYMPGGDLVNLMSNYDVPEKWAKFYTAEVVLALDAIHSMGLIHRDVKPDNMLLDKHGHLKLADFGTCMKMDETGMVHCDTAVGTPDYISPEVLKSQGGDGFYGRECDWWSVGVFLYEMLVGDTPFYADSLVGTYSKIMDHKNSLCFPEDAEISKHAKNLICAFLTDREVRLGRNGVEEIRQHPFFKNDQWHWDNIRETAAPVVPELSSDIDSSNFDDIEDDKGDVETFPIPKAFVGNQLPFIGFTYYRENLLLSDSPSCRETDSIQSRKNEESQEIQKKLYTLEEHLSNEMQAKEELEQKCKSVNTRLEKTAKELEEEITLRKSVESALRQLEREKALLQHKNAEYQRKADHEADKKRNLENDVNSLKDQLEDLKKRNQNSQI

Row | Structure (SMILES) | IC50 (ROCK2) | IC50 (ROCK1)
1 | CCn1nc(-c2ccc(-c3ccc(C4CC4)nc3)c(C)c2)nc1Nc1cc2c(cc1C)C(=O)NC2C (stereo not drawn) [Example 48] | < 0.3 µM | 3 to 10 µM
2 | CCn1nc(-c2ccc(-c3ccc(C4CC4)nc3)c(C)c2)nc1Nc1ccc2c(c1)C1(CC1)NC2=O [Example 49] | < 0.3 µM | > 10 µM
3 | CCn1nc(-c2ccc(-c3ccc(C4CC4)nc3)cc2C)nc1Nc1ccc2c(c1)C(C)NC2=O (stereo not drawn) [Example 50] | < 0.3 µM | > 10 µM
4 | CCn1nc(-c2ccc(-c3ccc(C)nc3)c(C)c2)nc1Nc1ccc2c(c1)C1(CC1)NC2=O [Example 51] | < 0.3 µM | > 10 µM
5 | CCn1nc(-c2ccc(-c3ccc(C4CC4)cn3)c(C)c2)nc1Nc1ccc2c(c1)CNC2=O [Example 52] | < 0.3 µM | > 10 µM
6 | CCn1nc(-c2ccc(-c3ccc(C)cn3)c(C)c2)nc1Nc1ccc2c(c1)C(C)NC2=O (stereo not drawn) [Example 53] | < 0.3 µM | > 10 µM
7 | CCn1nc(-c2ccc(C3CCNCC3)cc2)nc1Nc1ccc2c(c1)CNC2=O [Example 54] | 3 to 10 µM | > 10 µM
8 | CCn1nc(-c2ccc(-c3ccc(C4CC4)nc3)cc2)nc1Nc1ccc2c(c1)C1(CC1)NC2=O [Example 55] | < 0.3 µM | > 10 µM
9 | CCn1nc(-c2ccc(-c3ccc(C4CC4)nc3)cc2C)nc1Nc1cc2c(cc1C)C(=O)NC2C (stereo not drawn) [Example 56] | < 0.3 µM | 3 to 10 µM
10 | CCn1nc(-c2ccc(-c3ccc(C)nc3)c(F)c2)nc1Nc1cc2c(cc1C)C(=O)NC2C (stereo not drawn) [Example 57] | < 0.3 µM | > 10 µM
11 | CCn1nc(-c2ccc(-c3cnc(C4CC4)n3C)cc2)nc1Nc1cc2c(cc1C)C(=O)NC2C (stereo not drawn) [Example 58] | < 0.3 µM | 3 to 10 µM
12 | CCn1nc(-c2ccc(-n3cnc(C4CC4)c3)c(C)c2)nc1Nc1cc2c(cc1C)C(=O)NC2C (stereo not drawn) [Example 59] | < 0.3 µM | 3 to 10 µM
13 | CCn1nc(-c2ccc(-c3ccc(C4CC4)nc3)nc2)nc1Nc1ccc2c(c1)C(C)NC2=O (stereo not drawn) [Example 60] | < 0.3 µM | > 10 µM
14 | CCn1nc(-c2ccc(-c3ccc(C)nc3)cc2)nc1Nc1ccc2c(c1)C(C)NC2=O (stereo not drawn) [Example 61] | < 0.3 µM | 3 to 10 µM
15 | CCn1nc(-c2ccc(-c3ccc(C4CC4)nc3)c(F)c2)nc1Nc1cc2c(cc1C)C(=O)NC2C (stereo not drawn) [Example 62] | < 0.3 µM | > 10 µM
16 | CCn1nc(-c2ccc(-c3ccc(C)nc3)cc2C)nc1Nc1ccc2c(c1)C(C)NC2=O (stereo not drawn) [Example 63] | < 0.3 µM | 3 to 10 µM
17 | CCn1nc(-c2ccc(-c3cnc(C4CC4)n3C)cc2)nc1Nc1ccc2c(c1)C(C)NC2=O (stereo not drawn) [Example 64] | < 0.3 µM | 3 to 10 µM
18 | CCn1nc(-c2ccc(-c3cnc(C4CC4)n3C)c(C)c2)nc1Nc1ccc2c(c1)C(C)NC2=O (stereo not drawn) [Example 65] | < 0.3 µM | 3 to 10 µM
19 | CCn1nc(-c2ccc(-c3ccc(C4CC4)nc3)c(C)c2)nc1Nc1ccc2c(c1)C(C)NC2=O (stereo not drawn) [Example 66] | < 0.3 µM | > 10 µM
20 | CCn1nc(-c2ccc(C3=CCNCC3)cc2)nc1Nc1ccc2c(c1)CNC2=O [Example 67] | 3 to 10 µM | 3 to 10 µM
21 | CCn1nc(-c2ccc(C3=CCNC3)cc2)nc1Nc1ccc2c(c1)CNC2=O [Example 68] | 3 to 10 µM | > 10 µM
22 | CCn1nc(-c2ccc(-c3ccc(C)nc3)cc2)nc1Nc1ccc2c(c1)C1(CC1)NC2=O [Example 69] | < 0.3 µM | > 10 µM
23 | CCn1nc(-c2ccc(-c3ccc(C4CC4)nc3)cc2)nc1Nc1cc2c(cc1C)C(=O)NC2C (stereo not drawn) [Example 70] | < 0.3 µM | 3 to 10 µM
24 | CCn1nc(-c2ccc(-c3ccc(C)nc3)nc2)nc1Nc1cc2c(cc1C)C(=O)NC2C (stereo not drawn) [Example 71] | < 0.3 µM | > 10 µM

Row | Structure (SMILES) | IC50 (ROCK2) | IC50 (ROCK1)
25 | CCn1nc(-c2ccc(-c3ccc(C)nc3)c(C)c2)nc1Nc1ccc2c(c1)C(C)NC2=O (stereo not drawn) [Example 72] | < 0.3 µM | > 10 µM
26 | CCn1nc(-c2ccc(-c3ccc(C4CC4)nc3)cc2F)nc1Nc1cc2c(cc1C)C(=O)NC2C (stereo not drawn) [Example 73] | < 0.3 µM | 3 to 10 µM
27 | CCn1nc(-c2ccc(-c3ccc(C4CC4)nc3)cc2F)nc1Nc1ccc2c(c1)C(C)NC2=O (stereo not drawn) [Example 74] | < 0.3 µM | 3 to 10 µM
28 | CCn1nc(-c2ccc(-c3ccc(C)nc3)c(C)c2)nc1Nc1cc2c(cc1C)C(=O)NC2C (stereo not drawn) [Example 75] | < 0.3 µM | 3 to 10 µM
29 | CCn1nc(-c2ccc(-n3cnc(C4CC4)c3)c(C)c2)nc1Nc1ccc2c(c1)C(C)NC2=O (stereo not drawn) [Example 76] | < 0.3 µM | 3 to 10 µM
30 | CCn1nc(-c2cc(C)c(-c3ccc(C)nc3)cc2C)nc1Nc1cc2c(cc1C)C(=O)NC2C (stereo not drawn) [Example 77] | < 0.3 µM | 3 to 10 µM
31 | CCn1nc(-c2ccc(-c3ccc(C)cn3)c(F)c2)nc1Nc1ccc2c(c1)CNC2=O [Example 79] | < 0.3 µM | > 10 µM
32 | CCn1nc(-c2ccc(-c3ccc(C4CC4)nc3)c(C)c2)nc1Nc1cc2c(cc1F)C(=O)NC2C (stereo not drawn) [Example 80] | < 0.3 µM | > 10 µM
33 | CCn1nc(-c2ccc(-c3ccc(C)nc3)cc2F)nc1Nc1ccc2c(c1)C(C)NC2=O (stereo not drawn) [Example 81] | < 0.3 µM | > 10 µM
34 | CCn1nc(-c2ccc(-n3cnc(C4CC4)c3)c(F)c2)nc1Nc1cc2c(cc1C)C(=O)NC2C (stereo not drawn) [Example 82] | < 0.3 µM | 3 to 10 µM
35 | CCn1nc(-c2cc(C)c(-c3ccc(C)nc3)cc2F)nc1Nc1cc2c(cc1C)C(=O)NC2C (stereo not drawn) [Example 83] | < 0.3 µM | 3 to 10 µM
36 | CCn1nc(-c2ccc(-c3ccc(C4CC4)nc3)c(F)c2)nc1Nc1cc2c(cc1F)C(=O)NC2C (stereo not drawn) [Example 85] | < 0.3 µM | > 10 µM
37 | CCn1nc(-c2ccc(-n3cnc(C4CC4)c3)c(F)c2)nc1Nc1ccc2c(c1)C(C)NC2=O (stereo not drawn) [Example 86] | < 0.3 µM | 3 to 10 µM
38 | CCn1nc(-c2ccc(-c3cc(C)cnc3C)c(C)c2)nc1Nc1cc2c(cc1C)C(=O)NC2C (stereo not drawn) [Example 87] | 3 to 10 µM | > 10 µM
39 | CCn1nc(-c2cc(C)c(-c3ccc(C4CC4)nc3)cc2C)nc1Nc1cc2c(cc1C)C(=O)NC2C (stereo not drawn) [Example 88] | < 0.3 µM | > 10 µM
40 | CCn1nc(-c2ccc(-c3ccc(C)cn3)c(C)c2)nc1Nc1cc2c(cc1C)C(=O)NC2C (stereo not drawn) [Example 89] | < 0.3 µM | > 10 µM
41 | CCn1nc(-c2ccc(-c3ncc(C)cc3C)c(C)c2)nc1Nc1cc2c(cc1C)C(=O)NC2C (stereo not drawn) [Example 90] | 3 to 10 µM | > 10 µM
42 | CCn1nc(-c2ccc(-c3cc(C)c(C)cn3)c(C)c2)nc1Nc1cc2c(cc1C)C(=O)NC2C (stereo not drawn) [Example 91] | < 0.3 µM | 3 to 10 µM
43 | CCn1nc(-c2ccc(-c3ccc(C)nc3C)c(C)c2)nc1Nc1cc2c(cc1C)C(=O)NC2C (stereo not drawn) [Example 92] | < 0.3 µM | > 10 µM
44 | CCn1nc(-c2ccc(-c3ccc(C)nc3)cc2)nc1Nc1ccc2c(c1)C(F)NC2=O (stereo not drawn) [Example 93] | < 0.3 µM | 3 to 10 µM
45 | CCn1nc(-c2cc(C)c(-c3ccc(C4CC4)nc3)cc2F)nc1Nc1cc2c(cc1C)C(=O)NC2C (stereo not drawn) [Example 94] | < 0.3 µM | 3 to 10 µM
46 | CCn1nc(-c2cc(C)c(-c3ccc(C)cn3)cc2C)nc1Nc1cc2c(cc1C)C(=O)NC2C (stereo not drawn) [Example 95] | < 0.3 µM | > 10 µM
47 | CCn1nc(-c2ccc(-c3ccc(C4CC4)nc3)nc2)nc1Nc1cc2c(cc1C)C(=O)NC2C (stereo not drawn) [Example 97] | < 0.3 µM | 3 to 10 µM
48 | CCn1nc(-c2cc(C)c(-c3ccc(C)nc3)cc2F)nc1Nc1ccc2c(c1)C(C)NC2=O (stereo not drawn) [Example 98] | < 0.3 µM | 3 to 10 µM

Source: patent publication US20250122173A1, “MODULATORS OF RHO-ASSOCIATED PROTEIN KINASE” (Redx Pharma Limited, priority 2022, published 2025)
